Reference: patent US6737383B1, “Herbicidal oxadiazolidines” (priority 1999, dated 2004)

What was measured:
[1] = tested on: bedstraw; test: Test B pre/postemergence bedstraw; format: in vivo, Galium aparine
Procedure, shortened: (§1)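 Test chemicals in a non-phytotoxic solvent mixture with surfactant were sprayed preemergence onto planted seeds and postemergence onto plants 2 to 18 cm tall (1- to 4-leaf stage). After twelve to sixteen days in a greenhouse, injury was visually rated against untreated controls from 0 (no effect) to 10 (complete control).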

[2] = tested on: blackgrass; test: Test B pre/postemergence blackgrass; format: in vivo, Alopecurus myosuroides
Procedure, shortened: as §1

[3] = tested on: surinam grass; test: Test B pre/postemergence surinam grass; format: in vivo, Brachiaria decumbens
Procedure, shortened: as §1

[4] = tested on: corn; test: Test B pre/postemergence corn; format: in vivo, Zea mays
Procedure, shortened: as §1

[5] = tested on: crabgrass; test: Test B pre/postemergence crabgrass; format: in vivo, Digitaria sanguinalis
Procedure, shortened: as §1

[6] = tested on: pigweed; test: Test B pre/postemergence pigweed; format: in vivo, Amaranthus retroflexus
Procedure, shortened: as §1

[7] = tested on: rape; test: Test B pre/postemergence rape; format: in vivo, Brassica napus
Procedure, shortened: as §1

[8] = tested on: soybean; test: Test B pre/postemergence soybean; format: in vivo, Glycine max
Procedure, shortened: as §1

[9] = tested on: sugar beet; test: Test B pre/postemergence sugar beet; format: in vivo, Beta vulgaris
Procedure, shortened: as §1

[10] = tested on: velvetleaf; test: Test B pre/postemergence velvetleaf; format: in vivo, Abutilon theophrasti
Procedure, shortened: as §1

[11] = tested on: wheat; test: Test B pre/postemergence wheat; format: in vivo, Triticum aestivum
Procedure, shortened: as §1

[12] = tested on: wild oat; test: Test B pre/postemergence wild oat; format: in vivo, Avena fatua
Procedure, shortened: as §1

[13] = tested on: purple nutsedge; test: Test B pre/postemergence purple nutsedge; format: in vivo, Cyperus rotundus
Procedure, shortened: as §1

[14] = tested on: rice; test: Test B flood test rice; format: in vivo, Oryza sativa
Procedure, shortened: (§2)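 Flood test on plants grown to the 2-leaf stage; treated plants kept in greenhouse twelve to sixteen days, then visually rated against controls on a 0 (no effect) to 10 (complete control) scale.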

[15] = tested on: smallflower flatsedge; test: Test B flood test smallflower flatsedge; format: in vivo, Cyperus difformis
Procedure, shortened: as §2

[16] = tested on: duck salad; test: Test B flood test duck salad; format: in vivo, Heteranthera limosa
Procedure, shortened: as §2

[17] = Postemergence, Rate 125 g/ha, scale of 0 to 10 where 0 is no effect and 10 is complete control
[18] = Preemergence, Rate 125 g/ha, 0 is no effect, 10 is complete control
[19] = Preemergence, Rate 250 g/ha, scale 0 to 10, 0 is no effect, 10 is complete control
[20] = Preemergence, Rate 500 g/ha, scale 0 to 10 (0 no effect, 10 complete control)
[21] = Rate 62 g/ha, Postemergence, scale of 0 to 10 where 0 is no effect and 10 is complete control
[22] = Rate 250 g/ha, Postemergence, scale 0 to 10, 0 is no effect, 10 is complete control
[23] = Preemergence, Rate 62 g/ha, scale 0 to 10 (0 no effect, 10 complete control)
[24] = Rate 500 g/ha, Postemergence, scale 0 to 10
[25] = Postemergence (flood test species), Rate 125 g/ha, scale of 0 to 10 where 0 is no effect and 10 is complete control
[26] = Rate 62 g/ha, Postemergence section, flood test species, scale of 0 to 10 where 0 is no effect and 10 is complete control
[27] = Rate 250 g/ha, Postemergence (flood test), scale 0 to 10, 0 is no effect, 10 is complete control
[28] = Rate 500 g/ha, listed under Postemergence (flood test species), scale 0 to 10

Cc1ccccc1Cn1c(=O)on(C(=O)N(c2ccc(Cl)cc2)C(C)C)c1=O [Compound 136]
9: Crabgrass plant response rating [5, 24] | Sugarbeets plant response rating [9, 20]
10: Redroot pigweed plant response rating [6, 19] | Redroot pigweed plant response rating [6, 20]
4: Blackgrass plant response rating (0 to 10 scale) [2, 18] | Blackgrass plant response rating [2, 19] | Crabgrass plant response rating (0 to 10 scale) [5, 18] | Redroot pigweed plant response rating [6, 17] | Rape plant response rating [7, 24] | Soybean plant response rating [8, 17] | Plant response rating, Soybean [8, 22] | Sugarbeets plant response rating [9, 17] | Sugarbeets plant response rating [9, 23] | Sugarbeets plant response rating (0 to 10 scale) [9, 18] | Velvetleaf plant response rating [10, 20]
6: Blackgrass plant response rating [2, 20] | Plant response rating, Redroot pigweed [6, 22] | Redroot pigweed plant response rating [6, 24]
0: Bedstraw plant response rating (0 to 10 scale) [1, 18] | Bedstraw plant response rating [1, 19] | Bedstraw plant response rating [1, 20] | Blackgrass plant response rating [2, 17] | Blackgrass plant response rating [2, 23] | Blackgrass plant response rating [2, 21] | B. signalgrass plant response rating [3, 17] | B. signalgrass plant response rating [3, 21] | Corn plant response rating [4, 17] | Corn plant response rating [4, 23] | Corn plant response rating (0 to 10 scale) [4, 18] | Corn plant response rating [4, 19] | Corn plant response rating [4, 20] | Corn plant response rating [4, 21] | Plant response rating, Corn [4, 22] | Corn plant response rating [4, 24] | Crabgrass plant response rating [5, 23] | Rape plant response rating [7, 17] | Rape plant response rating [7, 23] | Rape plant response rating (0 to 10 scale) [7, 18] | Rape plant response rating [7, 19] | Rape plant response rating [7, 20] | Rape plant response rating [7, 21] | Soybean plant response rating [8, 23] | Soybean plant response rating (0 to 10 scale) [8, 18] | Soybean plant response rating [8, 19] | Soybean plant response rating [8, 20] | Velvetleaf plant response rating [10, 17] | Velvetleaf plant response rating [10, 23] | Velvetleaf plant response rating (0 to 10 scale) [10, 18] | Velvetleaf plant response rating [10, 19] | Velvetleaf plant response rating [10, 21] | Plant response rating, Velvetleaf [10, 22] | Wheat plant response rating [11, 17] | Wheat plant response rating [11, 23] | Wheat plant response rating (0 to 10 scale) [11, 18] | Wheat plant response rating [11, 19] | Wheat plant response rating [11, 20] | Wheat plant response rating [11, 21] | Plant response rating, Wheat [11, 22] | Wheat plant response rating [11, 24] | Wild oats plant response rating [12, 17] | Wild oats plant response rating [12, 23] | Wild oats plant response rating (0 to 10 scale) [12, 18] | Wild oats plant response rating [12, 19] | Wild oats plant response rating [12, 21] | Plant response rating, Wild oats [12, 22] | Nutsedge plant response rating [13, 17] | Nutsedge plant response rating [13, 23] | Nutsedge plant response rating (0 to 10 scale) [13, 18] | Nutsedge plant response rating [13, 19] | Nutsedge plant response rating [13, 21] | Plant response rating, Nutsedge [13, 22] | Nutsedge plant response rating [13, 24] | Rice plant response rating [14, 25] | Rice plant response rating [14, 26] | Plant response rating, Rice [14, 27] | Rice plant response rating [14, 28] | S. Flatsedge plant response rating [15, 25] | S. Flatsedge plant response rating [15, 26] | Plant response rating, S. Flatsedge [15, 27] | S. Flatsedge plant response rating [15, 28] | Ducksalad plant response rating [16, 25] | Ducksalad plant response rating [16, 26] | Plant response rating, Ducksalad [16, 27] | Ducksalad plant response rating [16, 28]
2: Bedstraw plant response rating [1, 21] | Crabgrass plant response rating [5, 17] | Plant response rating, Rape [7, 22] | Velvetleaf plant response rating [10, 24]
1: Plant response rating, B. signalgrass [3, 22] | Crabgrass plant response rating [5, 21]
3: Plant response rating, Blackgrass [2, 22] | B. signalgrass plant response rating [3, 23] | B. signalgrass plant response rating (0 to 10 scale) [3, 18] | B. signalgrass plant response rating ([3]; Rate 500 g/ha, Postemergence, scale of 0 to 10 where 0 is no effect and 10 is complete control) | Redroot pigweed plant response rating [6, 21] | Soybean plant response rating [8, 21] | Sugarbeets plant response rating [9, 21] | Wild oats plant response rating [12, 20] | Wild oats plant response rating [12, 24]
8: Plant response rating, Bedstraw [1, 22] | Crabgrass plant response rating [5, 20] | Plant response rating, Crabgrass [5, 22] | Redroot pigweed plant response rating (0 to 10 scale) [6, 18] | Sugarbeets plant response rating [9, 19] | Sugarbeets plant response rating [9, 24]
5: Bedstraw plant response rating [1, 17] | Blackgrass plant response rating [2, 24] | B. signalgrass plant response rating [3, 19] | B. signalgrass plant response rating [3, 20] | Soybean plant response rating [8, 24]
7: Crabgrass plant response rating [5, 19] | Redroot pigweed plant response rating [6, 23] | Plant response rating, Sugarbeets [9, 22]
